Legend:
Type in all cases: biochemical
Recombinant human Src = target: T1, Recombinant human Src (Homo sapiens, UniProt P12931); experiment: Src tyrosine kinase activity, poly E4Y / 32P-ATP phosphorylation assay
T1 construct: made in house; host or cells: baculovirus-insect cell system

Recombinant Csk = Recombinant Csk (Homo sapiens, UniProt P41240); experiment: Csk tyrosine kinase activity, poly E4Y / 32P-ATP phosphorylation assay
FGF receptor (FGFr) = experiment: FGFr tyrosine kinase activity, poly E4Y / 32P-ATP phosphorylation assay
[1] = Table 3, Formula II compounds, NI = no inhibition at 100 μg/mL
[2] = Table 4, Formula III compounds, NI = no inhibition at 100 μg/mL
[3] = poly E4Y / 32P-ATP, Formula IV compounds

T1 sequence (P12931 whole entry): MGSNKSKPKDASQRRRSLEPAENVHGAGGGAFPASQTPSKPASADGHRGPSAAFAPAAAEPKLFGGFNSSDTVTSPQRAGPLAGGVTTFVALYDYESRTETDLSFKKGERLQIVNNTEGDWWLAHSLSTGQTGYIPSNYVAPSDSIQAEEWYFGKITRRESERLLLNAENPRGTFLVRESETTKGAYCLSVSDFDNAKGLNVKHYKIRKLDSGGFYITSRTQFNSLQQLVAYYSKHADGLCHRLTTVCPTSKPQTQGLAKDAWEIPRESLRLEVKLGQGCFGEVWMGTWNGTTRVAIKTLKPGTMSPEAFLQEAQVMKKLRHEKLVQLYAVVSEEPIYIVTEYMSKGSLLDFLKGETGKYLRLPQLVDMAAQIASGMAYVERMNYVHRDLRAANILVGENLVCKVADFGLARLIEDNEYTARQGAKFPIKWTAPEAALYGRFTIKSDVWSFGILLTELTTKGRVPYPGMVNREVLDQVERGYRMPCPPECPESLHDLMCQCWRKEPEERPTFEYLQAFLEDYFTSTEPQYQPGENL

IC50 (Recombinant human Src; [1]) [µM] | IC50 (Recombinant Csk; [1]) [µM] | IC50 (FGF receptor (FGFr); [1]) [µM] | Structure (SMILES) | further results
19 | 105 | 40 | Cc1ccc(S(=O)(=O)Nc2ccc(Oc3ccc(F)cc3)cc2NS(=O)(=O)c2ccc(C)cc2)cc1 [Compound 12t, N-[4-(4-fluoro-phenoxy)-2-(4-toluenesulfonylamino)-phenyl]-4-toluenesulfonamide] | 
12 | 104 | 38 | Cc1ccc(S(=O)(=O)Nc2ccc(Oc3ccc4ccccc4c3)cc2NS(=O)(=O)c2ccc(C)cc2)cc1 [Compound 12u, N-[4-(naphthalene-2-yloxy)-2-(4-toluenesulfonylamino)-phenyl]-4-toluenesulfonamide] | 
69 | > 224 | 145 | COc1ccc(NS(=O)(=O)c2ccc(C)cc2)c(NS(=O)(=O)c2ccc(C)cc2)c1 [Compound 12v, N-[4-methoxy-2-(4-toluenesulfonylamino)-phenyl]-4-toluenesulfonamide] | 
5.5 | 185 | 15.3 | Cc1ccc(S(=O)(=O)Nc2ccc(Oc3ccc(Cl)cc3)cc2NS(=O)(=O)c2ccc(C)cc2)cc1 [Compound 12w, N-[4-(4-chloro-phenoxy)-2-(4-toluenesulfonylamino)-phenyl]-4-toluenesulfonamide] | 
9.5 | 72 | 31 | Cc1ccc(S(=O)(=O)Nc2ccc(Oc3cccc(C(=O)O)c3)cc2NS(=O)(=O)c2ccc(C)cc2)cc1 [Compound 12x, N-[4-(3-carboxy-phenoxy)-2-(4-toluenesulfonylamino)-phenyl]-4-toluenesulfonamide] | 
11 | 104 | 26 | Cc1ccc(S(=O)(=O)Nc2ccc(Oc3cccc(CC(=O)O)c3)cc2NS(=O)(=O)c2ccc(C)cc2)cc1 [Compound 12y, {3-[3,4-bis(4-toluenesulfonylamino)-phenoxy]-phenyl}-acetic acid] | 
14 | > 180 | 88 | Cc1ccc(S(=O)(=O)Nc2ccc(OCc3ccc(Cl)cc3)cc2NS(=O)(=O)c2ccc(C)cc2)cc1 [Compound 15b, N-[4-(4-chloro-benzyloxy)-2-(4-toluenesulfonylamino)-phenyl]-4-toluenesulfonamide] | 
27 | > 180 | 54 | Cc1ccc(S(=O)(=O)Nc2ccc(OCc3cccc(Cl)c3)cc2NS(=O)(=O)c2ccc(C)cc2)cc1 [Compound 15c, N-[4-(3-chloro-benzyloxy)-2-(4-toluenesulfonylamino)-phenyl]-4-toluenesulfonamide] | 
14 | 59 | 66 | Cc1ccc(S(=O)(=O)Nc2ccc(OCc3ccccc3Cl)cc2NS(=O)(=O)c2ccc(C)cc2)cc1 [Compound 15d, N-[4-(2-chloro-benzyloxy)-2-(4-toluenesulfonylamino)-phenyl]-4-toluenesulfonamide] | 
15 | > 181 | 132 | COc1ccc(COc2ccc(NS(=O)(=O)c3ccc(C)cc3)c(NS(=O)(=O)c3ccc(C)cc3)c2)cc1 [Compound 15e, N-[4-(4-methoxy-benzyloxy)-2-(4-toluenesulfonylamino)-phenyl]-4-toluenesulfonamide] | 
42 | > 189 | 91 | Cc1ccc(S(=O)(=O)Nc2ccc(OCC3CCCCC3)cc2NS(=O)(=O)c2ccc(C)cc2)cc1 [Compound 15f, N-[4-cyclohexylmethoxy-2-(4-toluenesulfonylamino)-phenyl]-4-toluenesulfonamide] | 
11 | > 174 |  | Cc1ccc(S(=O)(=O)Nc2ccc(SCc3ccccc3Cl)cc2NS(=O)(=O)c2ccc(C)cc2)cc1 [Compound 15g, N-[4-(2-chloro-benzylsulfanyl)-2-(4-toluenesulfonylamino)-phenyl]-4-toluenesulfonamide] | IC50 (μM) FGFr (FGF receptor (FGFr); [1]): NI (NI = no inhibition at 100 μg/mL)
46 | 214 | 64 | Cc1ccc(S(=O)(=O)Nc2ccc(-n3cccn3)cc2NS(=O)(=O)c2ccc(C)cc2)cc1 [Compound 17a, N-[4-(pyrazol-1-yl)-2-(4-toluenesulfonylamino)-phenyl]-4-toluenesulfonamide] | 
39 | > 218 | 98 | Cc1ccc(S(=O)(=O)Nc2ccc(N(C)C)cc2NS(=O)(=O)c2ccc(C)cc2)cc1 [Compound 17c, N-[4-dimethylamino-2-(4-toluenesulfonylamino)-phenyl]-4-toluenesulfonamide] | 
51 | > 207 | 3.1 | Cc1ccc(S(=O)(=O)Nc2ccc(-n3ccnc3)cc2NS(=O)(=O)c2ccc(C)cc2)cc1 [Compound 17d, N-[4-(imidazol-1-yl)-2-(4-toluenesulfonylamino)-phenyl]-4-toluenesulfonamide] | 
19 | > 153 | 21 | Cc1ccc(S(=O)(=O)Nc2ccc(N3CCN(S(=O)(=O)c4ccc(C)cc4)CC3)cc2NS(=O)(=O)c2ccc(C)cc2)cc1 [Compound 17e, N-{2-(4-toluenesulfonylamino)-4-[4-(toluene-4-sulfonyl)-piperazin-1-yl]-phenyl}-4-toluenesulfonamide] | 
38 | > 199 | 50 | Cc1ccc(S(=O)(=O)Nc2ccc(N3CCOCC3)cc2NS(=O)(=O)c2ccc(C)cc2)cc1 [Compound 17f, N-[4-(morpholin-4-yl)-2-(4-toluenesulfonylamino)-phenyl]-4-toluenesulfonamide] | 
> 224 | > 224 |  | COc1cccc(NS(=O)(=O)c2ccc(C)cc2)c1NS(=O)(=O)c1ccc(C)cc1 [Compound 22a, N-[3-methoxy-2-(4-toluenesulfonylamino)-phenyl]-4-toluenesulfonamide] | IC50 (μM) FGFr (FGF receptor (FGFr); [1]): NI (NI = no inhibition at 100 μg/mL)

The next lines start with the compound.

Structure (SMILES) | IC50 (Recombinant human Src; [1]) [µM] | IC50 (Recombinant Csk; [1]) [µM] | IC50 (FGF receptor (FGFr); [1]) [µM] | further results
Cc1ccc(S(=O)(=O)Nc2ccc(-c3ccc(Cl)cc3)cc2NS(=O)(=O)c2ccc(C)cc2)cc1 [Compound 21, N-[4-(4-chloro-phenyl)-2-(4-toluenesulfonylamino)-phenyl]-4-toluenesulfonamide] | 8.6 | > 190 | 23 | 
Cc1ccc(S(=O)(=O)Nc2cc(N)c(Sc3ccc(Cl)cc3)cc2NS(=O)(=O)c2ccc(C)cc2)cc1 [Compound 23, N-[5-amino-4-(4-chloro-phenylsulfanyl)-2-(4-toluenesulfonylamino)-phenyl]-4-toluenesulfonamide] |  |  |  | IC50 (Recombinant human Src; [2]): 58 µM; IC50 (Recombinant Csk; [2]): 280 µM; IC50 (FGF receptor (FGFr); [2]): 56 µM
CC(=O)Nc1cc(NS(=O)(=O)c2ccc(C)cc2)c(NS(=O)(=O)c2ccc(C)cc2)cc1Sc1ccc(Cl)cc1 [Compound 24, N-[2-(4-chloro-phenylsulfanyl)-4,5-bis-(4-toluenesulfonylamino)-phenyl]-acetamide] |  |  |  | IC50 (Recombinant human Src; [2]): > 162 µM; IC50 (Recombinant Csk; [2]): > 162 µM; IC50 (FGF receptor (FGFr); [2]): 515 µM
COC(=O)c1cc(NS(=O)(=O)c2ccc(C)cc2)c(NS(=O)(=O)c2ccc(C)cc2)cc1Oc1ccc(OC)cc1 [Compound 33, Methyl 2-(4-methoxy-phenoxy)-4,5-bis-(4-toluenesulfonylamino)-benzoate] |  |  |  | IC50 (Recombinant human Src; [2]): 67 µM; IC50 (Recombinant Csk; [2]): > 168 µM; IC50 (μM) FGFr (FGF receptor (FGFr); [2]): NI (NI = no inhibition at 100 μg/mL)
Cc1ccc(S(=O)(=O)Nc2cc(Br)c(Br)cc2NS(=O)(=O)c2ccc(C)cc2)cc1 [Compound 38a, N-[4,5-dibromo-2-(4-toluenesulfonylamino)-phenyl]-4-toluenesulfonamide] |  |  |  | IC50 (Recombinant human Src; [2]): 31 µM; IC50 (Recombinant Csk; [2]): > 174 µM; IC50 (FGF receptor (FGFr); [2]): 110 µM
COc1ccc(OCc2ccc(OS(=O)(=O)c3ccc(C)cc3)c(OS(=O)(=O)c3ccc(C)cc3)c2)cc1 [Compound 48, [4-(4-methoxy-phenoxymethyl)-2-(4-toluenesulfonyloxy)-phenyl]-4-toluenesulfonate] |  |  |  | IC50 (Recombinant human Src; [3]): 102 µM; IC50 (Recombinant Csk; [3]): > 180 µM; IC50 (μM) FGFr (FGF receptor (FGFr); [3]): NI (NI = no inhibition at 100 μg/mL)
Cc1ccc(C(=O)Nc2cc(Sc3ccc(Cl)cc3)c([N+](=O)[O-])cc2NC(=O)c2ccc(C)cc2)cc1 [Compound 51, N-[4-(4-chloro-phenylsulfanyl)-5-nitro-2-(4-toluoylamino)-phenyl]-4-toluamide] |  |  |  | IC50 (Recombinant human Src; [3]): 153 µM; IC50 (Recombinant Csk; [3]): 51 µM; IC50 (FGF receptor (FGFr); [3]): 40 µM
Cc1ccc(C(=O)Nc2ccc(Sc3ccc(Cl)cc3)cc2NC(=O)c2ccc(C)cc2)cc1 [Compound 52, N-[4-(4-chloro-phenylsulfanyl)-2-(4-toluoylamino)-phenyl]-4-toluamide] |  |  |  | IC50 (Recombinant human Src; [3]): 51 µM; IC50 (Recombinant Csk; [3]): > 205 µM; IC50 (μM) FGFr (FGF receptor (FGFr); [3]): NI (NI = no inhibition at 100 μg/mL)
Cc1ccc(S(=O)(=O)N(C)c2cc(Sc3ccc(Cl)cc3)c([N+](=O)[O-])cc2N(C)S(=O)(=O)c2ccc(C)cc2)cc1 [Compound 53, N-[4-(4-chloro-phenylsulfanyl)-5-nitro-2-(4-toluenesulfonyl-methyl-amino)-phenyl]-N-methyl-4-toluenesulfonamide] |  |  |  | IC50 (Recombinant human Src; [3]): 388 µM; IC50 (Recombinant Csk; [3]): 261 µM; IC50 (FGF receptor (FGFr); [3]): 254 µM
Cc1ccc(S(=O)(=O)Nc2cc([N+](=O)[O-])c(Sc3ccc(Cl)cc3)cc2N)cc1 [Compound 55, N-[2-amino-4-(4-chloro-phenylsulfanyl)-5-nitro-phenyl]-4-toluenesulfonamide] |  |  |  | IC50 (Recombinant human Src; [3]): 33 µM; IC50 (Recombinant Csk; [3]): > 222 µM; IC50 (FGF receptor (FGFr); [3]): 2.2 µM
Cc1ccc(C(=O)Nc2cc([N+](=O)[O-])c(Sc3ccc(Cl)cc3)cc2N)cc1 [Compound 56, N-[2-amino-4-(4-chloro-phenylsulfanyl)-5-nitro-phenyl]-4-toluamide] |  |  |  | IC50 (Recombinant human Src; [3]): > 242 µM; IC50 (Recombinant Csk; [3]): > 242 µM; IC50 (FGF receptor (FGFr); [3]): 410 µM
COc1ccc(Oc2ccc(NS(=O)(=O)c3ccc(C)cc3)c(O)c2)cc1 [Compound 59, N-[2-hydroxy-4-(4-methoxy-phenoxy)-phenyl]-4-toluenesulfonamide] |  |  |  | IC50 (Recombinant human Src; [3]): 65 µM; IC50 (Recombinant Csk; [3]): > 259 µM; IC50 (FGF receptor (FGFr); [3]): 65 µM
COc1ccc(Oc2ccc(NS(=O)(=O)c3ccc(C)cc3)c(OC)c2)cc1 [Compound 60, N-[2-methoxy-4-(4-methoxy-phenoxy)-phenyl]-4-toluenesulfonamide] |  |  |  | IC50 (Recombinant human Src; [3]): 129 µM; IC50 (Recombinant Csk; [3]): > 250 µM; IC50 (μM) FGFr (FGF receptor (FGFr); [3]): NI (NI = no inhibition at 100 μg/mL)
